Laboratory results published in patent publication US10220001B2, “Active self-healing biomaterial system” (The Regents of the University of Michigan, priority 2010, dated 2019).

System: serum testosterone
Experiment: Testosterone suppression in rats after injection of leuprolide acetate self-encapsulated PLGA microspheres
Assay type: in vivo, male Sprague-Dawley rats
Conditions: for testosterone suppression: result in words
Description: Evaluation of testosterone suppression in rats following injection of leuprolide acetate self-encapsulated PLGA microspheres: The ability of PLGA self-healing microencapsulation to provide long-term in vivo release was evaluated by assessing long-term testosterone suppression after a single injection of leuprolide acetate self-encapsulated PLGA microspheres in male Sprague-Dawley rats (S5-S8). The treatment of experimental animals was in accordance with University committee on use and care of animals (University of Michigan UCUCA), and all NIH guidelines for the care and use of laboratory animals. Male Sprague-Dawley rats of 6 weeks old were housed in cages and given free access to standard laboratory food and water, and allowed one week to acclimate prior to study initiation. Animals were anesthetized with 2-4% isoflurane administered by a calibrated vaporizer (Midmark, Orchard Park, N.Y., USA). The leuprolide acetate self-encapsulated PLGA microspheres (1×2-month dose), leuprolide acetate solution (1×1-month dose), and blank SM PLGA microspheres without drug (1× dose) in a liquid vehicle (1% w/v carboxymethylcellulose and 2% w/v mannitol), and commercial 1-month Lupron Depot (Abbott Laboratories, North Chicago, Ill., USA) (2× dosing at days 0 and 28) were subcutaneously injected at the back (lower neck portion) of rats (6 animals/study group). […]
PLGA self-healing microencapsulation provides long-term delivery of bioactive large molecules in vivo—Long-term testosterone suppression in rats after single injection of leuprolide acetate self-encapsulated PLGA microspheres: Leuprolide acetate (Mw=1209.6 Da) is commonly used in the treatment of hormone-dependent cancers (e.g., prostate cancer) and gynecologic disorders (e.g., endometriosis and precocious puberty). […] The ability of PLGA self-healing microencapsulation to provide long-term in vivo release was evaluated by assessing long-term testosterone suppression in male Sprague-Dawley rats (six rats/study group) in comparison with commercial Lupron Depot™ and negative controls (FIG. 2C). […]

For `CCNC(=O)[C@@H]1CCCN1C(=O)[C@H](CCCNC(=N)N)NC(=O)[C@H](CC(C)C)NC(=O)[C@@H](CC(C)C)NC(=O)[C@H](Cc1ccc(O)cc1)NC(=O)[C@H](CO)NC(=O)[C@H](Cc1c[nH]c2ccccc12)NC(=O)[C@H](Cc1c[nH]cn1)NC(=O)[C@@H]1CCC(=O)N1` [leuprolide solution, Leuprolide acetate], the serum testosterone level (one day after subcutaneous injection) was about 5 ng/mL, the testosterone suppression was “failed to provide testosterone suppression below the castration level” and the testosterone suppression (listed as solution leuprolide) was “ineffective to suppress testosterone”.
